Source: patent US7022716B2, “Cyclic amine phenyl beta-3 adrenergic receptor agonists” (Wyeth, priority 2000, dated 2006)

Target: T1, human β3 adrenergic receptor (Homo sapiens, UniProt P13945)
T1 construct: Full length β3 AR clones (402 amino acids) containing the last 6 amino acids of hβ3-AR are prepared; expressed in transfected cells; host or cells: CHO (Chinese hamster ovary) cells
Assay: cAMP (SPA) response in CHO cells transfected with human β3 adrenergic receptor
Assay type: cell-based
Design: key: fraction of maximal isoproterenol (10^-5 M) response
Settings: maximal response relative to maximal response of isoproterenol at 10^-5 M
How it was run: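 Reactions were stopped with 0.2N HCl and neutralised, and cAMP was measured by SPA. Activity is expressed as percent of the maximal 10^−5 M isoproterenol response.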

T1 sequence (P13945 whole entry): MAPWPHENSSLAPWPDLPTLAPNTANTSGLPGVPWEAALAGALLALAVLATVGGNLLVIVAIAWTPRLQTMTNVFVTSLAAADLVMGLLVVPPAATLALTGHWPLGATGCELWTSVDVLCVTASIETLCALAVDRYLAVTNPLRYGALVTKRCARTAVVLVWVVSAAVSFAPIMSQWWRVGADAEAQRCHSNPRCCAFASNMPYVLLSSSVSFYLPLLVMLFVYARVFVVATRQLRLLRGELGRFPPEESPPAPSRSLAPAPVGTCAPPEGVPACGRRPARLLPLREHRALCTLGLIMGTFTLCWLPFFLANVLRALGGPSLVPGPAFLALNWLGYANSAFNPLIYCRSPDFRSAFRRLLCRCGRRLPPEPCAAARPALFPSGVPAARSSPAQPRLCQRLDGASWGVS

| Molecule | IA(β3) |
| --- | --- |
| CN(C)CC(=O)Nc1ccc(N2CCC(NC[C@H](O)COc3cccc4[nH]c(=O)[nH]c34)CC2)cc1 [Example 384, 2-(Dimethylamino)-N-{4-[4-({(2S)-2-hydroxy-3-[(2-oxo-2,3-dihydro-1H-benzimidazol-4-yl)oxy]propyl}amino)-1-piperidinyl]phenyl}acetamide] | 0.64 |
| O=C(NCc1ccc(S(=O)(=O)Nc2ccc(N3CCC(NC[C@H](O)COc4cccc5[nH]c(=O)[nH]c45)CC3)cc2)s1)c1ccccc1 [Example 347, N-{[5-({4-[4-({(2S)-2-Hydroxy-3-[(2-oxo-2,3-dihydro-1H-benzimidazol-4-yl)oxy]propyl}amino)-1-piperidinyl]anilino}sulfonyl)-2-thienyl]methyl}benzamide] | 0.91 |
| COc1ccc(S(=O)(=O)Nc2ccc(N3CCC(NC[C@H](O)COc4cccc5[nH]c(=O)[nH]c45)CC3)cc2)cc1 [Example 330, N-{4-[4-({(2S)-2-Hydroxy-3-[(2-oxo-2,3-dihydro-1H-benzimidazol-4-yl)oxy]propyl}-amino)-1-piperidinyl]phenyl}-4-methoxybenzenesulfonamide] | 0.98 |
| N#Cc1ccc(S(=O)(=O)N(c2ccc(N3CCC(NC[C@H](O)COc4cccc5[nH]c(=O)[nH]c45)CC3)cc2)S(=O)(=O)c2ccc(C#N)cc2)cc1 [Example 285, 4-Cyano-N-[(4-cyanophenyl)sulfonyl]-N-{4-[4-({(2S)-2-hydroxy-3-[(2-oxo-2,3-dihydro-1H-benzimidazol-4-yl)oxy]propyl}amino)-1-piperidinyl]phenyl}benzenesulfonamide] | 0.76 |
| CC(C)C[C@H](NC(=O)c1ccc(N2CCC(NC[C@H](O)c3ccc(O)c(NS(C)(=O)=O)c3)CC2)cc1)C(=O)O [Example 199, (2S)-2-(4-{4-[(2R)-2-Hydroxy-2-(4-hydroxy-3-methanesulfonylamino-phenyl)-ethylamino]-piperidin-1-yl}-benzoylamino)-4-methyl-pentanoic acid] | 1 |
| COc1ccc(S(=O)(=O)Nc2ccc(N3CCC(NC[C@H](O)COc4ccc(O)c(NS(C)(=O)=O)c4)CC3)cc2)cc1OC [Example 308, N-(4-{4-[((2S)-2-Hydroxy-3-{4-hydroxy-3-[(methylsulfonyl)amino]phenoxy}propyl)-amino]-1-piperidinyl}phenyl)-4-dimethoxybenzenesulfonamide] | 1.4 |
| CS(=O)(=O)Nc1cc([C@@H](O)CNC2CCN(c3ccc(C(=O)NCC(=O)O)cc3)CC2)ccc1O [Example 197, [(4-{4-[((2R)-2-Hydroxy-2-{4-hydroxy-3-[(methylsulfonyl)amino]phenyl}ethyl)amino]-1-piperidinyl}benzoyl)amino]acetic acid] | 0.94 |
| COc1ccc(S(=O)(=O)Nc2ccc(N3CC(NC[C@H](O)COc4cccc5[nH]c6ccccc6c45)C3)cc2)cc1OC [Example 416, N-[4-(3-{[(2S)-3-(9H-Carbazol-4-yloxy)-2-hydroxypropyl]amino}-1-azetidinyl)phenyl]-3,4-dimethoxybenzenesulfonamide] | 0.48 |
| COC(=O)COc1ccc(S(=O)(=O)Nc2ccc(N3CCC(NC[C@H](O)c4ccc(O)c(NS(C)(=O)=O)c4)CC3)cc2)cc1 [Example 313, Methyl{4-[(4-{4-[((2R)-2-hydroxy-2-{4-hydroxy-3-[(methylsulfonyl)amino]-phenyl}ethyl)amino]-1piperidinyl}anilino)sulfonyl]phenoxy}acetate] | 1 |
| CS(=O)(=O)Nc1cc([C@@H](O)CNC2CCN(c3ccc(NS(=O)(=O)c4cccnc4)cc3)CC2)ccc1O [Example 326, N-(4-{4-[((2R)-2-Hydroxy-2-{4-hydroxy-3-[(methylsulfonyl)amino]phenyl}ethyl)amino]-1-piperidinyl}phenyl)-3-pyridinesulfonamide] | 1.3 |
| CCCCOc1ccc(S(=O)(=O)Nc2ccc(N3CCC(NCC(O)COc4cccc5[nH]c6ccccc6c45)CC3)cc2)cc1 (centres unmarked) [Example 289, 4-Butoxy-N-(4-{4-[3-(9H-carbazol-4-yloxy)-2-hydroxy-propylamino]-piperidin-1-yl}-phenyl)-benzenesulfonamide] | 0.59 |
| CC(=O)Nc1ccc(S(=O)(=O)Nc2ccc(N3CCC(NCC(O)c4ccc(O)cc4)CC3)cc2)cc1 (centres unmarked) [Example 259, N-(4-{[4-(4-{[2-Hydroxy-2-(4-hydroxyphenyl)ethyl]amino}-1-piperidinyl)-anilino]sulfonyl}phenyl)acetamide] | 0.97 |
| O=[N+]([O-])c1ccc(Oc2c(Cl)cc(S(=O)(=O)Nc3ccc(N4CCC(NCC(O)c5cccc(O)c5)CC4)cc3)cc2Cl)c(Cl)c1 (centres unmarked) [Example 354, 3,5-Dichloro-4-(2-chloro-4-nitrophenoxy)-N-[4-(4-{[2-hydroxy-2-(3-hydroxyphenyl)-ethyl]amino}-1-piperidinyl)phenyl]benzenesulfonamide] | 0.73 |
| O=c1[nH]c2cccc(OC[C@@H](O)CNC3CCN(c4ccc(NS(=O)(=O)c5cc(Cl)cc(Cl)c5)cc4)CC3)c2[nH]1 [Example 333, 3,5-Dichloro-N-{4-[4-({(2S)-2-hydroxy-3-[(2-oxo-2,3-dihydro-1H-benzimidazol-4-yl)oxy]propyl}amino)-1-piperidinyl]phenyl}benzenesulfonamide] | 0.83 |
| COc1ccc(C(=O)Nc2ccc(N3CCC(NCC(O)c4ccc(O)c(NS(C)(=O)=O)c4)CC3)cc2)cc1OC (centres unmarked) [Example 385, N-(4-{4-[(2-Hydroxy-2-{4-hydroxy-3-[(methylsulfonyl)amino]phenyl}ethyl)amino]-1-piperidinyl}phenyl)-3,4-dimethoxybenzamide] | 1.12 |
| CCOC(=O)c1ccc(N2CCC(NC[C@H](O)c3cccc(Cl)c3)CC2)cc1.Cl [Example 181, {4-[(2R)-2-(3-Chloro-phenyl)-2-hydroxy-ethylamino]-piperidin-1-yl}-benzoic acid ethyl ester hydrochloride] | 0.56 |
| CS(=O)(=O)Nc1cc([C@@H](O)CNC2CCN(c3ccc(NC(=O)CC(=O)O)cc3)CC2)ccc1O [Example 372, 3-(4-{4-[((2R)-2-Hydroxy-2-{4-hydroxy-3-[(methylsulfonyl)amino]phenyl}ethyl)amino]-1-piperidinyl}anilino)-3-oxopropanoic acid] | 1 |
| CC(=O)Nc1ccc(S(=O)(=O)Nc2ccc(N3CCC(NCC(O)c4ccc(O)cc4O)CC3)cc2)cc1 (centres unmarked) [Example 268, N-(4-{[4-(4-{[2-(2,4-Dihydroxyphenyl)-2-hydroxyethyl]amino}-1-piperidinyl)-anilino]sulfonyl}phenyl)acetamide] | 0.64 |
| CS(=O)(=O)Nc1cc([C@@H](O)CNC2CCN(c3ccc(NS(=O)(=O)c4ccsc4C(=O)O)cc3)CC2)ccc1O [Example 321, 3-[(4-{4-[((2R)-2-Hydroxy-2-{4-hydroxy-3-[(methylsulfonyl)amino]phenyl}ethyl)amino]-1-piperidinyl}anilino)sulfonyl]-2-thiophenecarboxylic acid] | 1.05 |
| CCCCCCNC(=O)Nc1ccc(S(=O)(=O)Nc2ccc(N3CCC(NC[C@H](O)COc4cccc5[nH]c6ccccc6c45)CC3)cc2)cc1 [Example 290] | 0.72 |
| O=C1NC(=O)C(Cc2ccc(N3CCC(NC[C@H](O)COc4cccc5[nH]c(=O)[nH]c45)CC3)c(F)c2)S1 (stereo partly drawn) [Example 67, 5-(3-Fluoro-4-{4-[(2S)-2-hydroxy-3-(2-oxo-2,3-dihydro-1H-benzoimidazol-4-yloxy)-propylamino]-piperidin-1-yl}-benzyl)-thiazolidine-2,4-dione] | 1.06 |
| CCCCS(=O)(=O)N(CC(=O)OCC)c1ccc(N2CCC(NC[C@H](O)c3ccc(O)c(NS(C)(=O)=O)c3)CC2)cc1 [Example 345] | 1 |
| 5-[4-(4-{[4-(2S)-2-(3-Bromoisoxazol-5-yl)-2-hydroxyethyl]amino}piperidine-1-yl)benzyl]-1,3-thiazolidine-2,4-dione [Example 122] | 0.46 |
| CCCCS(=O)(=O)Nc1ccc(N2CCC(NC[C@H](O)COc3ccc(O)c(NS(C)(=O)=O)c3)CC2)cc1 [Example 309, N-(4-{4-[((2S)-2-Hydroxy-3-{4-hydroxy-3-[(methylsulfonyl)amino]phenoxy}-propyl)amino]-1-piperidinyl}phenyl)-1-butanesulfonamide] | 1 |
| CC(=O)Nc1ccc(S(=O)(=O)Nc2ccc(N3CCC(NC[C@H](O)COc4ccccc4)CC3)cc2)cc1 [Example 272, N-(4-{[4-(4-{[(2S)-2-Hydroxy-3-phenoxypropyl]amino}-1-piperidinyl)anilino]-sulfonyl}phenyl)acetamide] | 0.57 |
| N#Cc1ccc(S(=O)(=O)Nc2ccc(N3CCC(NC[C@H](O)COc4cccc5[nH]c(=O)[nH]c45)CC3)cc2)cc1 [Example 284, 4-Cyano-N-{4-[4-({(2S)-2-hydroxy-3-[(2-oxo-2,3-dihydro-1H-benzimidazol-4-yl)oxy]propyl}amino)-1-piperidinyl]phenyl}benzenesulfonamide] | 0.87 |
| CCOC(=O)CNC(=O)Nc1ccc(N2CCC(NC[C@H](O)c3ccc(O)c(NS(C)(=O)=O)c3)CC2)cc1 [Example 377, Ethyl {[(4-{4-[((2R)-2-hydroxy-2-{4-hydroxy-3-[(methylsulfonyl)amino]phenyl}-ethyl)amino]-1-piperidinyl}anilino)carbonyl]amino}acetate] | 0.66 |
| O=S(=O)(Nc1ccc(N2CCC(NC[C@H](O)COc3ccccc3)CC2)cc1)c1ccc(Oc2ncc(C(F)(F)F)cc2Cl)cc1 [Example 346, 4-{[3-Chloro-5-(trifluoromethyl)-2-pyridinyl]oxy}-N-[4-(4-{[(2S)-2-hydroxy-3-phenoxypropyl]amino}-1-piperidinyl)phenyl]benzenesulfonamide] | 0.76 |
| CCCCCCCCS(=O)(=O)Nc1ccc(N2CCC(NCC(O)c3ccc(O)c(NS(C)(=O)=O)c3)CC2)cc1 (centres unmarked) [Example 297, N-(4-{4-[(2-Hydroxy-2-{4-hydroxy-3-[(methylsulfonyl)amino]phenyl}ethyl)amino]-1-piperidinyl}phenyl)-1-octanesulfonamide] | 1 |
